Earlier results, collected in patent publication EP3173487A1 (priority 2015, dated 2017).

Test system: haloalkane dehalogenases
Details: pH 8.6

Compound | classification as substrate of the analyzed haloalkane dehalogenases
ClCC(Cl)CCl [1,2,3-trichloropropane] | poor
BrCCBr [1,2-dibromoethane] | universal
CC(Cl)CCl (stereo not drawn) [1,2-dichloropropane] | poor
CCCCBr [1-bromobutane] | universal
CCCCI [1-iodobutane] | universal
CCCI [1-iodopropane] | universal
N#CCCCBr [4-bromobutanenitrile] | universal
BrCC1CCCCC1 [(bromomethyl)cyclohexane] | poor
ClC1CCCCC1 [chlorocyclohexane] | poor
